# Laboratory results as given in patent publication US20080221134A1, “8-ALKYNYLXANTHINES AND DERIVATIVES” (priority 2006, published 2008).
# Entries after “also recorded” stand apart in the source; their conditions may differ.
# Assays:
# [1] = system: haloperidol induced model of Parkinson's Disease; assay: Haloperidol induced model of Parkinson's Disease; conditions: in vivo
# [2] = system: rats; assay: Modified Irwin test (FOB, SAC, FU); type: in vivo, rat; conditions: 0.01-30 mg/kg
# Excerpt: In this study the compounds of the present invention were screened for basal behavioural, autonomic, neurological and toxicological side-effects in rats. For this purpose, a functional observational battery (FOB) in form of an Irwin test (Irwin S., Psychopharmacologia, 1968, 13, 222; 1968; Warburton D. M. Psychopharmacology, 2002, 163, 4; Haggerty G. C. et al., J. Amer. Coll. Toxicol., 1991, 10, 677; Mattsson J. L. et al., J. Amer. Coll. Toxicol., 1996, 15, 239, all references are herein incorporated by reference) modified and validated by the Test Facility was used. Each test compound was tested at eight doses (0.01, 0.03, 0.1, 0.3, 1.0, 3.0, 10.0 and 30.0 mg/kg). All compounds were dissolved in DMSO (administration volume 1 ml/kg). Each dose group included three animals. Two vehicle groups (DMSO and Labrasol) served as negative controls.
# At the first day of each test week all test compound solutions necessary for the test (1-2 weeks) were prepared by means of one dilution series starting with the highest concentration. All test compounds dissolved in DMSO were administered in a volume of 1 ml/kg. DMSO-containing solutions were stored at −18° C. All solutions were melted for administration at room temperature 16-20 hours before the start of the test.
# Study design and time schedule:
# 4-7 days: Acclimatization and handling of the animals 1 day: Test day with • (a) Four repeated functional observational battery (FOB): 30 min, 60 min, 120 min, 180 min following compound administration • (b) Short animal check (SAC): 300 min following compound administration 1 day: Follow-up observation (FU): • 24 h (1440 min) following compound administration.
# In all experimental parts, an experienced ethologist used lists of predefined methods and behavioural parameters in order to rate the behaviour of the animal (see table 7 for functional observational battery (FOB), table 8 for short animal check (SAC) and table 9 for follow-up observation (FU).
# A statistical evaluation of the data was performed that enabled an assessment of the compound's effects on each parameter. Dose-response relationships are not necessarily linear. It was not clear a priori whether the response would be dose-dependent or whether low, medium or high dose effects would occur. Therefore, the data were correlated against a set of different numeric models of theoretical dose-response curves. For this kind of evaluation the measurement times were not differentiated. An average value over all measurement times was calculated for each animal. This value was taken as one measurement within the observation vector. The complete set of parameters measured for the animal (each one averaged over time) formed the observation vector. Each dose was then represented by three observation vectors (3 animals per dose). The effects of all doses were compared with vehicle (DMSO) as the observation vectors for the zero dose. A common pool of 24 animals for the zero dose was used for all compounds to be tested. For each test compound the obtained values for each parameter together with values from the pool of vehicle-treated (DMSO) animals were then correlated with theoretical dose-response models (analysis profiles). Since 8 doses were be used, there were 8 models, each assuming that the maximum compound effect occurred at one of these doses. Effects of other doses were assumed to be attenuated with a linearly descending slope of the theoretical curve. Correlation values and statistical significance of regression were then calculated. An error probability of p<0.05 (two-tailed testing) was taken as significance level. Non-significant regressions were neglected. In consequence, each parameter was assessed as not affected or affected by the compound in a dose-response relationship according to type 1 (low dose effect) up to type 8 (high dose effect). Dose response is maximal for the effect with the greatest absolute correlation coefficient. […]
SMILES,effect in haloperidol induced model of Parkinson's Disease [1],activity in the Irwin Test (hyperlocomotion) [2]
"C#CCn1c(=O)c2c(nc(C#Cc3ccc(OC)c(OC)c3)n2C)n(CC)c1=O [test compound 1, 3-ethyl-8-(3,4-dimethoxyphenylethynyl)-7-methyl-1-prop-2-ynyl-3,7-dihydropurine-2,6-dione]",effective; also recorded: significant effects,potent hyperlocomotion
"C#CCn1c(=O)c2c(nc(C#Cc3ccc(OC)c(OC)c3)n2C)n(CCCO)c1=O [test compound 2, 3-(3-hydroxypropyl)-8-(3,4-dimethoxyphenylethynyl)-7-methyl-1-prop-2-ynyl-3,7-dihydropurine-2,6-dione]",,potent hyperlocomotion
